Reference: patent US20150065343A1, “Acrylamide compounds for combating invertebrate pests” (priority 2012, published 2015)

How the values were obtained:
Assay type in all cases: in vivo
[1] = test system: Tobacco budworm (Heliothis virescens); test: B.9 Tobacco budworm microtiter plate test on insect diet with eggs; conditions: 120 h, sprayed onto insect diet at 10 μl, egg and larval mortality after 5 days, read-out: mortality in comparison with untreated controls
Protocol: B.9 Tobacco budworm (Heliothis virescens) HELVI
For evaluating control of tobacco budworm (Heliothis virescens) the test unit consisted of 96-well-microtiter plates containing an insect diet and 15-25 H. virescens eggs.
The compounds were formulated using a solution containing 75% v/v water and 25% v/v DMSO. Different concentrations of formulated compounds were sprayed onto the insect diet at 10 μl, using a custom built micro atomizer, at two replications.
(§1) After application, microtiter plates were incubated at about 28±1° C. and about 80±5% relative humidity for 5 days. Egg and larval mortality was then visually assessed.

[2] = test system: Green peach aphid (Myzus persicae); test: B.3 Green peach aphid systemic test, artificial diet in 96-well plates; conditions: 72 h, adult aphids, 3 days, read-out: mortality in comparison with untreated controls
From the text: B.3 Green peach aphid (Myzus persicae)
For evaluating control of green peach aphid (Myzus persicae) through systemic means the test unit consisted of 96-well-microtiter plates containing liquid artificial diet under an artificial membrane.
The compounds were formulated using a solution containing 75% v/v water and 25% v/v DMSO. Different concentrations of formulated compounds were pipetted into the aphid diet, using a custom built pipetter, at two replications.
After application, 5-8 adult aphids were placed on the artificial membrane inside the microtiter plate wells. The aphids were then allowed to suck on the treated aphid diet and incubated at about 23+1° C. and about 50+5% relative humidity for 3 days. Aphid mortality and fecundity was then visually assessed.

[3] = test system: Orchid thrips (dichromothrips corbetti); test: B.5 Orchid thrips floral-immersion test; conditions: 96 h, adult thrips, after 4 days, read-out: mortality in comparison with untreated controls
Protocol: B.5 Orchid thrips (dichromothrips corbetti)
Dichromothaps corbetti adults used for bioassay were obtained from a colony maintained continuously under laboratory conditions. For testing purposes, the test compound was diluted to a concentration of 500 ppm (wt compound: vol diluent) in a 1:1 mixture of acetone:water (vol:vol), plus 0.01% vol/vol Kinetic® surfactant.
Thrips potency of each compound was evaluated by using a floral-immersion technique. Plastic petri dishes were used as test arenas. All petals of individual, intact orchid flowers were dipped into treatment solution and allowed to dry. Treated flowers were placed into individual petri dishes along with 10-15 adult thrips. The petri dishes were then covered with lids. All test arenas were held under continuous light and a temperature of about 28° C. for duration of the assay. After 4 days, the numbers of live thrips were counted on each flower, and along inner walls of each petri dish. The level of thrips mortality was extrapolated from pre-treatment thrips numbers.

[4] = test system: Vetch aphid (Megoura viciae); test: B.8 Vetch aphid test on broad bean leaf disks in 24-well plates; conditions: foliar, 120 h, sprayed onto leaf disks at 2.5 μl, adult aphids, 5 days, read-out: mortality in comparison with untreated controls
Protocol: B.8 Vetch aphid (Megoura viciae)
For evaluating control of vetch aphid (Megoura viciae) through contact or systemic means the test unit consisted of 24-well-microtiter plates containing broad bean leaf disks.
The compounds were formulated using a solution containing 75% v/v water and 25% v/v DMSO. Different concentrations of formulated compounds were sprayed onto the leaf disks at 2.5 μl, using a custom built micro atomizer, at two replications.
After application, the leaf disks were air-dried and 5-8 adult aphids placed on the leaf disks inside the microtiter plate wells. The aphids were then allowed to suck on the treated leaf disks and incubated at about 23±1° C. and about 50±5% relative humidity for 5 days. Aphid mortality and fecundity was then visually assessed.

[5] = test system: Boll weevil (Anthonomus grandis); test: B.10 Boll weevil microtiter plate test on insect diet with eggs; conditions: 120 h, sprayed onto insect diet at 20 μl, egg and larval mortality after 5 days, read-out: mortality in comparison with untreated controls
Protocol: B.10 Boll weevil (Anthonomus grandis)
For evaluating control of boll weevil (Anthonomus grandis) the test unit consisted of 24-well-microtiter plates containing an insect diet and 20-30 A. grandis eggs.
The compounds were formulated using a solution containing 75% v/v water and 25% v/v DMSO. Different concentrations of formulated compounds were sprayed onto the insect diet at 20 μl, using a custom built micro atomizer, at two replications.
After application, microtiter plates were incubated at about 23±1° C. and about 50±5% relative humidity for 5 days. Egg and larval mortality was then visually assessed.

[6] = test system: Diamond back moth (Plutella xylostella); test: B.2 Diamond back moth leaf-dip test on Chinese cabbage; conditions: dipped Chinese cabbage leaves, mortality recorded 24, 72 and 120 hours after treatment, read-out: mortality in comparison with untreated controls
Protocol: B.2 Diamond back moth (Plutella xylostella)
Leaves of Chinese cabbage were dipped in test solution and air-dried. Treated leaves were placed in petri dished lined with moist filter paper. Mortality was recorded 24, 72, and 120 hours after treatment.

[7] = test system: Mediterranean fruitfly (Ceratitis capitata); test: B.4 Mediterranean fruitfly microtiter plate test on insect diet with eggs; conditions: 120 h, sprayed onto insect diet at 5 μl, egg and larval mortality after 5 days, read-out: mortality in comparison with untreated controls
Protocol: B.4 Mediterranean fruitfly (Ceratitis capitata)
For evaluating control of Mediterranean fruitfly (Ceratitis capitata) the test unit consisted of microtiter plates containing an insect diet and 50-80 C. capitate eggs.
The compounds were formulated using a solution containing 75% v/v water and 25% v/v DMSO. Different concentrations of formulated compounds were sprayed onto the insect diet at 5 μl, using a custom built micro atomizer, at two replications.
as §1

[8] = test system: Southern armyworm (Spodoptera eridania); test: B.7 Southern armyworm spray test on lima bean plants; conditions: foliar, 96 h, sprayed lima bean foliage, armyworm larvae, 4 days after treatment, read-out: mortality in comparison with untreated controls
Protocol: B.7 Southern armyworm (Spodoptera eridania)
(§2) The active compounds were formulated in cyclohexanone as a 10,000 ppm solution supplied in tubes. The tubes were inserted into an automated electrostatic sprayer equipped with an atomizing nozzle and they served as stock solutions for which lower dilutions were made in 50% acetone:50% water (v/v). A nonionic surfactant (Kinetic®) was included in the solution at a volume of 0.01% (v/v).
Lima bean plants (variety Sieva) were grown 2 plants to a pot and selected for treatment at the 1st true leaf stage. Test solutions were sprayed onto the foliage by an automated electrostatic plant sprayer equipped with an atomizing spray nozzle. The plants were dried in the sprayer fume hood and then removed from the sprayer. Each pot was placed into perforated plastic bags with a zip closure. About 10 to 11 armyworm larvae were placed into the bag and the bags zipped closed. Test plants were maintained in a growth room at about 25° C. and about 20-40% relative humidity for 4 days, avoiding direct exposure to fluorescent light (24 hour photoperiod) to prevent trapping of heat inside the bags. Mortality and reduced feeding were assessed 4 days after treatment, compared to untreated control plants.

[9] = test system: Silverleaf whitefly (bernisia argentifolii); test: B.6 Silverleaf whitefly spray test on cotton plants; conditions: Bemisia argentifolii, 72 h, sprayed cotton plants, whitefly adults, 3 days after treatment, read-out: mortality in comparison with untreated controls
From the text: B.6 Silverleaf whitefly (bernisia argentifolii)
as §2
Cotton plants at the cotyledon stage (one plant per pot) were sprayed by an automated electrostatic plant sprayer equipped with an atomizing spray nozzle. The plants were dried in the sprayer fume hood and then removed from the sprayer. Each pot was placed into a plastic cup and about 10 to 12 whitefly adults (approximately 3-5 days old) were introduced. The insects were collected using an aspirator and a nontoxic Tygon® tubing connected to a barrier pipette tip. The tip, containing the collected insects, was then gently inserted into the soil containing the treated plant, allowing insects to crawl out of the tip to reach the foliage for feeding. Cups were covered with a reusable screened lid. […] Mortality was assessed 3 days after treatment, compared to untreated control plants.

Cc1cc(/C=C/C(=O)NC(c2cccc(C(F)(F)F)c2)C(F)(F)F)sc1C(=O)NC1CC1 (centres unmarked) [Compound 2-1, N-cyclopropyl-3-methyl-5-[(E)-3-oxo-3-[[2,2,2-trifluoro-1-[3-(trifluoromethyl)phenyl]-ethyl]amino]prop-1-enyl]thiophene-2-carboxamide]
≥ 75%: mortality at 2500 ppm [1] | mortality at 2500 ppm [2] | mortality at 500 ppm [3] | mortality at 2500 ppm [4] | mortality at 2500 ppm [5] | mortality at 500 ppm [6] | mortality at 2500 ppm [7] | mortality at 300 ppm [8]

CCN(Cc1sc(/C=C/C(=O)NC(c2cccc(C(F)(F)F)c2)C(F)(F)F)cc1C)C(=O)CS(C)(=O)=O (centres unmarked) [Compound 3-1, (E)-3-[5-[[Ethyl-(2-methylsulfonylacetyl)amino]methyl]-4-methyl-2-thienyl]-N-[2,2,2-trifluoro-1-[3-(trifluoromethyl)phenyl]ethyl]prop-2-enamide]
≥ 75%: mortality at 2500 ppm [2] | mortality at 500 ppm [3] | mortality at 2500 ppm [5] | mortality at 300 ppm [8]

CNC(=O)N/N=C/c1sc(/C=C/C(=O)NC(c2cccc(C(F)(F)F)c2)C(F)(F)F)cc1C (centres unmarked) [Compound 1-1, (E)-3-[4-methyl-5-[(E)-(methylcarbamoylhydrazono)methyl]-2-thienyl]-N-[2,2,2-trifluoro-1-[3-(trifluoromethyl)phenyl]ethyl]prop-2-enamide]
≥ 75%: mortality at 2500 ppm [1] | mortality at 2500 ppm [2] | mortality at 500 ppm [3] | mortality at 300 ppm [9] | mortality at 2500 ppm [4] | mortality at 2500 ppm [5] | mortality at 500 ppm [6] | mortality at 2500 ppm [7] | mortality at 300 ppm [8]

Cc1sc(/C=C/C(=O)NC(c2cccc(C(F)(F)F)c2)C(F)(F)F)cc1C(=O)NC1CC1 (centres unmarked) [Compound 4-1, N-Cyclopropyl-2-methyl-5-[(E)-3-oxo-3-[[2,2,2-trifluoro-1-[3-(trifluoromethyl)phenyl]-ethyl]amino]prop-1-enyl]thiophene-3-carboxamide]
≥ 75%: mortality at 2500 ppm [2] | mortality at 300 ppm [9] | mortality at 2500 ppm [5] | mortality at 2500 ppm [7] | mortality at 300 ppm [8]

CSCC(=O)NCc1sc(/C=C/C(=O)NC(c2cccc(C(F)(F)F)c2)C(F)(F)F)cc1C (centres unmarked) [Compound 3-6, (E)-3-[4-Methyl-5-[[(2-methylsulfanylacetyl)amino]methyl]-2-thienyl]-N-[2,2,2-trifluoro-1-[3-(trifluoromethyl)phenyl]ethyl]prop-2-enamide]
≥ 75%: mortality at 2500 ppm [2] | mortality at 500 ppm [3] | mortality at 2500 ppm [5]
